The text below walks through data of US7687079B2, “Methods of treating ileus” (priority 2002, dated 2010).

Assay [1] has as its system MPO-positive leukocytes in intestinal muscularis. The experiment in a line: myeloperoxidase histochemistry, leukocyte recruitment into intestinal muscularis after SITx. Format: in vivo, rat. How it is done: Muscularis whole mounts were prepared from the mid small intestine collected 24 hours post-operatively. Segments of intestine were immersed in KRB in a Sylgaard™-lined glass dish and pinned without stretching along the mesenteric border. The length and width of the segments were measured with a caliper. The […] was then opened along the mesenteric border and stretched to 150% of the length and 250% of the width. The mucosa and submucosa were removed using fine forceps, and the remaining tissue fixed in 100% denatured ethanol for 30 minutes. […] Tissues were mounted on glass slides using Gel/Mount™ (Biomedia Corp., Foster City, Calif.), cover-slipped and inspected by light microscopy (Nikon FXA, Fryer, Huntley, Ill.) at a magnification of 200×. Numbers of MPO-positive PMN's infiltrating the muscularis extemae were determined from the mean counts collected from five to six adjacent optical fields centered between the mesenteric and anti-mesenteric borders.

Another assay has as its system IL-10 mRNA. Briefly: IL-10 mRNA in muscularis after IM (real time RT-PCR). The format is in vivo, mouse. Here is the method:
Pro- and anti-inflammatory gene expression was determined by real time RT-PCR. The small intestinal muscularis externa was collected at 4 time points (3, 6, 12, and 24 hr) postoperatively and snap frozen in liquid nitrogen. Total RNA extraction was performed using the guanidium-thiocyanate phenol-chloroform extraction method as described in Eskandari et al. (Id.) RNA pellets were resuspended in RNA-secure resuspension solution (Ambion Inc., Austin, Tex.), followed by removal of potential contaminating DNA by treatment with DNase I (DNA-Free Kit, Ambion Inc., Austin, Tex.). Equal aliquots (5 μg) of total RNA from each sample were quantified by spectrophotometry (wavelength […]). Peak mRNA expression was quantified in duplicate by SYBR Green two-step, real-time RT-PCR. β-actin was used as the endogenous reference. Aliquoted RNA (40 ng) was subjected to first-strand complementary DNA (cDNA) synthesis using random hexamers (PE applied Biosystems, Foster City, Calif.) and Super Script II (Life Technologies, Rockville, Md.). Primers were taken from the literature or designed according to published sequences (Table 3). PCR reaction mixture was prepared using SYBR Green PCR Core Reagents (PE Applied Biosystems). Each sample was estimated in duplicate using the conditions recommended by the manufacturer. Real-time PCR data were plotted as the ΔRn fluorescence signal versus the cycle number. An arbitrary threshold was set to the midlinear portion of the log ΔRn cycle plot. The threshold cycle (CT) is defined as the cycle number at which the ΔRn, crosses this threshold. Quantification of mRNA expression was normalized to β-actin and calculated relative to control using the comparative CT method.
To exclude PCR amplification of contaminating genomic DNA, RT-negative controls (samples containing RNA which was not reverse transcribed) were included in each PCR reaction. Melting curve analyses were performed for each reaction to ensure amplification of specific product. In addition, gel electrophoresis were performed for the primers to confirm the absence of non-specific bands and that the amplicons were of the correct size. PCR amplification efficiency of each target cDNA was measured by determining the colinearity of serial dilutions. Serial 3-fold dilutions of cDNA were performed in triplicate for all primers. Standard curves were generated by plotting CT values against relative input copy number to validate the primers. Slopes of the standard curves of −3.2±0.3 with correlation coefficients of 0.99 were considered to be acceptable, having corresponding efficiencies of 100±10%. Analyses of Mediator Release from Intestinal Muscularis
Background: Real-time PCR tracks product formation cycle by cycle.

For assay [2], the system named is pigs with ileus induced by mild manipulation of the small intestine. The experiment in a line: intestinal transit of steel ball bearings after IM in pig model. Format: in vivo. The conditions noted are these: CO 250 ppm for 3 hr prior to IM. Here is the method: Similar experiments were performed in a pig model. Ileus was induced by mild manipulation of the small intestine (IM). Pigs were exposed to CO (250 ppm) or air (controls) for a period of 3 hr prior to IM. Gastrointestinal function was assessed in vivo by observing intestinal transit of steel ball bearings placed within the small intestine.

“Also recorded” adds a separate entry of the source.

Turning to `[C-]#[O+]` [CO, carbon monoxide], the MPO-positive cells entry in assay [1] (CO-treated control rats (unoperated)) was “rare”. Further, the “mean number of MPO positive cells” value in assay [1] (SITx + CO, 24 hours after SITx, not statistically significant (p=0.08, n=6)) is “decreased”. Besides, in assay [1] (SITx + CO, Table 2), the Inflammatory infiltrates was 21 ± 3.2 /200x field. In the assay with IL-10 mRNA (CO treated manipulated animals, 3 hr time point), the “IL-10 gene expression relative to controls” value worked out at 43 fold. Also, the “IL-10 gene expression, increase over manipulation alone” value with IL-10 mRNA (IM + CO vs IM, 3 hr) amounted to 300%. The IL-10 message entry in the assay on IL-10 mRNA (IM + CO vs IM, 3 hr but not 6 hr after surgery) is “increased”. Moreover, in the assay with IL-10 mRNA (control mice, CO inhalation alone, 3 and 6 hr), the IL-10 expression entry is “significant increase; also recorded: significantly increased”. Besides, the intestinal transit result in assay [2] is listed as “improve”.
